Data published in the NIST ThermoML archive (doi:10.1016/j.jct.2016.07.005).

Test: xn = mol fraction of the nth substance listed
Settings: 100 kPa, Liquid; for viscosity: Concentric cylinders viscometry; for mass density: Vibrating tube method

CN1CCC[C@H]1c1cccnc1 [(-)-3-(N-methylpyrrolidino)pyridine] + CC(O)CO
Settings | mass density [kg/m3] | viscosity [mPa·s]
293.15 K, x1 = 0.1 | 1035.04 | 59.35
293.15 K, x1 = 0.2009 | 1033.1 | 53.52
293.15 K, x1 = 0.3 | 1030.49 | 44.85
293.15 K, x1 = 0.4016 | 1027.64 | 35.02
293.15 K, x1 = 0.5 | 1024.73 | 26.04
293.15 K, x1 = 0.6005 | 1021.54 | 18.44
293.15 K, x1 = 0.7 | 1018.73 | 12.89
293.15 K, x1 = 0.7983 | 1015.98 | 9.269
293.15 K, x1 = 0.9 | 1012.96 | 6.875
293.15 K, x1 = 1 | 1010.23 | 4.694
298.15 K, x1 = 0.1 | 1031.1 | 43.28
298.15 K, x1 = 0.2009 | 1029.06 | 38.88
298.15 K, x1 = 0.3 | 1026.32 | 32.72
298.15 K, x1 = 0.4016 | 1023.44 | 25.84
298.15 K, x1 = 0.5 | 1020.54 | 19.6
298.15 K, x1 = 0.6005 | 1017.36 | 14.25
298.15 K, x1 = 0.7 | 1014.59 | 10.27
298.15 K, x1 = 0.7983 | 1011.83 | 7.576
298.15 K, x1 = 0.9 | 1008.87 | 5.707
298.15 K, x1 = 1 | 1006.16 | 4.048
303.15 K, x1 = 0.1 | 1027.18 | 32.21
303.15 K, x1 = 0.2009 | 1025 | 28.85
303.15 K, x1 = 0.3 | 1022.19 | 24.37
303.15 K, x1 = 0.4016 | 1019.27 | 19.44
303.15 K, x1 = 0.5 | 1016.35 | 14.99
303.15 K, x1 = 0.6005 | 1013.17 | 11.16
303.15 K, x1 = 0.7 | 1010.42 | 8.284
303.15 K, x1 = 0.7983 | 1007.68 | 6.286
303.15 K, x1 = 0.9 | 1004.77 | 4.834
303.15 K, x1 = 1 | 1002.1 | 3.518
308.15 K, x1 = 0.1 | 1023.28 | 24.46
308.15 K, x1 = 0.2009 | 1020.91 | 21.87
308.15 K, x1 = 0.3 | 1018.08 | 18.56
308.15 K, x1 = 0.4016 | 1015.09 | 14.98
308.15 K, x1 = 0.5 | 1012.14 | 11.73
308.15 K, x1 = 0.6005 | 1008.98 | 8.935
308.15 K, x1 = 0.7 | 1006.13 | 6.791
308.15 K, x1 = 0.7983 | 1003.54 | 5.264
308.15 K, x1 = 0.9 | 1000.64 | 4.12
308.15 K, x1 = 1 | 998.055 | 3.088
313.15 K, x1 = 0.1 | 1019.3 | 18.79
313.15 K, x1 = 0.2009 | 1016.8 | 16.79
313.15 K, x1 = 0.3 | 1013.89 | 14.33
313.15 K, x1 = 0.4016 | 1010.88 | 11.69
313.15 K, x1 = 0.5 | 1007.92 | 9.302
313.15 K, x1 = 0.6005 | 1004.79 | 7.224
313.15 K, x1 = 0.7 | 1002.03 | 5.605
313.15 K, x1 = 0.7983 | 999.39 | 4.425
313.15 K, x1 = 0.9 | 996.55 | 3.532
313.15 K, x1 = 1 | 994.014 | 2.758
318.15 K, x1 = 0.1 | 1015.29 | 14.91
318.15 K, x1 = 0.2009 | 1012.66 | 13.34
318.15 K, x1 = 0.3 | 1009.7 | 11.45
318.15 K, x1 = 0.4016 | 1006.65 | 9.438
318.15 K, x1 = 0.5 | 1003.69 | 7.62
318.15 K, x1 = 0.6005 | 1000.58 | 6.031
318.15 K, x1 = 0.7 | 997.85 | 4.779
318.15 K, x1 = 0.7983 | 995.25 | 3.839
318.15 K, x1 = 0.9 | 992.46 | 3.094
318.15 K, x1 = 1 | 989.984 | 2.411
323.15 K, x1 = 0.1 | 1011.25 | 12.03
323.15 K, x1 = 0.2009 | 1008.51 | 10.78
323.15 K, x1 = 0.3 | 1005.48 | 9.306
323.15 K, x1 = 0.4016 | 1002.41 | 7.746
323.15 K, x1 = 0.5 | 999.45 | 6.339
323.15 K, x1 = 0.6005 | 996.37 | 5.104
323.15 K, x1 = 0.7 | 993.67 | 4.124
323.15 K, x1 = 0.7983 | 991.1 | 3.375
323.15 K, x1 = 0.9 | 988.38 | 2.765
323.15 K, x1 = 1 | 985.962 | 2.195
